Where a name gives a salt, the structure may show the parent alone. Read-outs that look alike come from different tables or passages of the source.
Target: α7-subtype of nicotinic receptors (Rattus norvegicus, UniProt Q05941)
Assay: biochemical
Type: binding

Sequence of α7-subtype of nicotinic receptors (Q05941 23-502): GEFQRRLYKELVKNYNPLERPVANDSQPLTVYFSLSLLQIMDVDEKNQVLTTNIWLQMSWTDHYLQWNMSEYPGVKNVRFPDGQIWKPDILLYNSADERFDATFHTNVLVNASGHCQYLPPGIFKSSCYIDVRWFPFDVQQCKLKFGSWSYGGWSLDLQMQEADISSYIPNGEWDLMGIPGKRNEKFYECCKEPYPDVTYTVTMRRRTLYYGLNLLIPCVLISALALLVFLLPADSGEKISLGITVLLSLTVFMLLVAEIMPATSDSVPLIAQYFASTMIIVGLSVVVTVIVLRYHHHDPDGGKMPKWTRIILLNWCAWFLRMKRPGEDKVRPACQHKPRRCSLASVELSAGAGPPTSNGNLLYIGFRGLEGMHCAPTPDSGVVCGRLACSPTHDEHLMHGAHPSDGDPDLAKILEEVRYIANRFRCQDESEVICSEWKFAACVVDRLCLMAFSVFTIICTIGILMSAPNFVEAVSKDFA

c1c[nH]c(-c2nnc(N3CCN4CCC3CC4)o2)c1 [Compound 3, 2-(1,4-Diazabicyclo[3.2.2]nonan-4-yl)-5-(1H-pyrrol-2-yl)-1,3,4-oxadiazole free base]
IC50 (rat brain, concentration inhibiting specific binding of 3H-α-bungarotoxin by 50%, read-out: IC50 Inhibition of 3H-α-Bungarotoxine Binding): 17 nM

FCCn1cccc1-c1nnc(N2CCN3CCC2CC3)o1 [Compound 1, 2-(1,4-Diazabicyclo[3.2.2]nonan-4-yl)-5-[1-(2-fluoroethyl)pyrrol-2-yl]-1,3,4-oxadiazole fumaric acid salt]
IC50: 11 nM

From US8946412B2 (priority 2009, dated 2015)
